Patent US8563514B2, “Peptides and pharmaceutical compositions for treating connective tissue” (Metamorefix, priority 2007, dated 2013)
Entries after “also recorded” stand apart in the source; their conditions may differ.

Legend:
[1] = tested on: human foreskin fibrobalsts (FF1); assay: Cell attachment assay in monolayers (peptide-coated Sepharose beads), FF1; format: cell-based; details: for cell binding activity at the lower dose (words): 6 mg peptide/ml compared with 12 mg/ml; for time to saturated attachment: Conclusions b109, concentration and cell type not stated; for Nomarsky optics microscopy of peptide coated beads attached to FF1 (observation): 3 days to 3 weeks of incubation; for activity in comparison with the positive control PreC-gamma: FIG. 3b, cell type not stated
Experimental: (§1) 100 mg of dried CNBr-Sepharose Beads (yields 350 μl of swollen Sepharose Beads—gel) was introduced into a disposable polystyrene mini-column (FIG. 1), appropriate for the preparation of a 0.5-2 ml gel filtration column (Pierce, Prod #29920). The lower part of the columns is blocked by a thick glass filter and a stopper.
(§2) 3-4 ml total volume of HCl solution (1 mM) was added to the column, and the liquid was forced to flow under vacuum pressure through the gel. This process was repeated 5 times. The final aliquot of HCl was aspirated until cracks appeared in the gel cake. 2-3 ml aliquots of coupling buffer were immediately added to the washed beads and aspirated. This step was repeated 4-5 times. The high pH hydrolyzes and opens the active groups.
(§3) A peptide solution in coupling buffer prepared as above was immediately added to the activated SEPHAROSE BEADS Sepharose beads were used to fixate the peptides for all in-vitro assays in the column to a final binding of 6 mg peptide per ml SEPHAROSE BEADS gel. The column was closed and shaken overnight at 4° C. very gently to avoid mechanical breakage of SEPHAROSE BEADS. The bottom cap of the column was removed and the solution of ligand/buffer was collected as the Sepharose Beads settled on the filter. The OD280 of the collected buffer was checked to determine the concentration of uncoupled peptide. The gel was washed/aspirated with 5 volumes (˜2 ml) of coupling buffer and gently mixed. Any remaining active groups on the gel were blocked with blocking buffer for 2 hours at room temperature or overnight at 4° C. The Sepharose Beads gel with peptides was then washed by 2 cycles each of 5 gel volumes of: • a. 0.1 M Acetate buffer • b. Coupling buffer • c. Storing buffer: azide-coupling buffer: coupling buffer containing 0.1% NaN3 (final concentration)
(§4) The tested peptides (Table 1) were coupled to Sepharose Beads at two concentrations: 6 and 12 mg/ml Sepharose Beads. Sepharose Beads that underwent the coupling procedure without peptide addition (“naked Sepharose Beads”) served as a negative control (referred to herein as “Sepharose Beads—blank”). A cell binding assay was performed with 2 normal cell types: bovine aortal endothelial cells (BAEC) and human foreskin fibrobalsts (FF1). Sepharose Beads were added to 12 well culture plates with sub-confluent monolayer of the cultured cells (100-300 beads were added to each well). The fraction of Sepharose Beads attached to the monolayer was monitored at different times.

[2] = tested on: bovine aortal endothelial cells (BAEC); assay: Cell attachment assay in monolayers (peptide-coated Sepharose beads), BAEC; format: cell-based; details: for cell binding activity at the lower dose (words): BAEC monolayer, 6 mg peptide/ml compared with 12 mg/ml; for Nomarsky optics microscopy of peptide coated beads attached to BAEC (observation): 3 weeks of incubation; for overall activity at longer incubation times: microscopy, statement follows FF1 and BAEC paragraphs
Experimental: as §1, §2, §3, §4

BAEC = assay: Toxicity assay for the peptides (MTS cell survival), BAEC; format: cell-based, bovine
Experimental: (§5) A toxicity assay was done to determine the toxicity of the peptides tested to either one of the cell lines used. 15×10^3 cells (FF1 or BAEC) were seeded in 96 well plastic plates. After an overnight incubation, increasing concentrations of peptides in the range of 0.1-300 μg/ml were added to the wells. Cell survival was checked by the MTS assay after 2 and 5 days and normalized to the cell number of the controls (no peptide).

FF1 in suspension = assay: Cell attachment assay in cell suspensions (MTS assay); format: cell-based, human; details: followed over days
Excerpt: Attachment of FF1 in suspension to peptides bound to sepharose beads was followed using the MTS assay. The MTS assay uses tetrazolium, which is taken up by viable cells and converted into formazan, which has a light absorption peak at 492 nm. The light absorbance at 492 (OD492) is directly proportional to the number of the living cells attached to the beads. Calibration curves were used to transform the OD492 readings into cell number, […]

FF1 = assay: Toxicity assay for the peptides (MTS cell survival), FF1; format: cell-based, human
Experimental: as §5

[3] = FF1 monolayer, 6 mg peptide/ml Sepharose beads
[4] = FF1, FIG. 3a, peptide concentration not given
[5] = high concentrations (>100 μg/ml), 5 days
[6] = very high concentrations (>100 μg/ml), prolonged exposure (5 days)

C-Fic-a-K: peptide having the sequence KGYKYSYKVSEMKVRPAK (SEQ ID NO: 4) (listed as Homo sapiens)
cell binding (extent reached) [1, 3]: 100%

C-Fic: peptide having the sequence KGYNYSYKSEMKVRPA (SEQ ID NO: 1); subsequence of human ficolin (listed as Homo sapiens)
extent of cell binding ([1]; FF1, 6 mg peptide/ml, after 96 hours of incubation): about 30%
cell binding activity at the lower dose (words) ([1]; FF1 monolayer): no reactivity
cell binding activity at the lower dose (words) ([1]; FF1 monolayer, listed as C-fic): did not attach; also recorded: looses its activity; also recorded: inactive
cell binding (extent reached) ([1]; FF1 monolayer, 12 mg peptide/ml, up to 150 hours): 100%
cell binding activity at the lower dose (words) [2]: completely looses reactivity
cell binding activity at the lower dose (words) ([2]; listed as C-fic): did not attach; also recorded: some activity
extent of cell binding ([2]; BAEC, 6 mg peptide/ml, after 96 hours of incubation): about 30%

C-M-Fic2: peptide having the sequence KGYKYSYKGGWTVFQRRMDGSVDFYR (SEQ ID NO: 8) (listed as Homo sapiens)
cell binding (extent reached) [1, 4]: 100%
kinetic profile of cell binding [1, 4]: good kinetic profile of cell binding (fast attachment)

C-M-Fic2K: peptide having the sequence KGYKYSYKGGWTVFQRRMDGSVDFYRK (SEQ ID NO: 6) (listed as Homo sapiens)
cell binding (extent reached) [1, 4]: 100%
kinetic profile of cell binding [1, 4]: good kinetic profile of cell binding (fast attachment)

C-M-Fic-a-K: peptide having the sequence KGYKYSYKVSEMKFQRRMDGSVDFYRK (SEQ ID NO: 7) (listed as Homo sapiens)
rate / kinetics of cell binding compared with positive control PreC ([1]; FF1 monolayer, 6 mg peptide/ml): accelerated the kinetics of cell binding

C-M-Fic: peptide having the sequence KGYNYSYKVSEMKFQRRVDGSVDFYRK (SEQ ID NO: 3) (listed as Homo sapiens)
cell survival, normalized to controls (BAEC; [5]): about 50%
toxicity (BAEC; [6]): some minor toxicity
time to saturated attachment [1]: 72 h
Nomarsky optics microscopy of peptide coated beads attached to FF1 (observation) ([1]; FF1): aggregates of cells and beads formed
time to reach 100% / saturated cell binding ([1]; FF1 monolayer, 6 mg peptide/ml): 96 h
cell binding (extent reached) [1, 3]: 100%
cell binding activity at the lower dose (words) ([1]; FF1 monolayer): strongly affected by the decrease
cell binding activity at the lower dose (words) ([1]; FF1 monolayer, listed as C-M-fic): strongly affected by the lowerdose
time to reach 100% / saturated cell binding ([1]; FF1 monolayer, 6 mg peptide/ml, listed as C-M-fic): ≤ 96 h
rate of cell binding compared to the lower concentration ([1]; FF1 monolayer, 12 mg peptide/ml): slightly faster cell binding
time to reach 100% cell binding ([1]; FF1 monolayer, higher dose (12 mg/ml)): 20 h
attachment of FF1 cells in suspension to coated sepharose beads over time (words) (FF1 in suspension; listed as C-M-fic): an increase in cell number is detected after the first day
attachment of FF1 cells in suspension to coated sepharose beads over time (words) (FF1 in suspension; listed as CM-fic): stable for at least three days
cell survival, normalized to controls (FF1; [5]): about 50%
toxicity (FF1; [6]): some minor toxicity
cell binding activity at the lower dose (words) [2]: slower rate at the lower concentration
Nomarsky optics microscopy of peptide coated beads attached to BAEC (observation) ([2]; BAEC): formation of small tubes
overall activity at longer incubation times [2]: also active

M-Fic-K: peptide having the sequence GGWTVFQRRMDGSVDFYRK (SEQ ID NO: 5) (listed as Homo sapiens)
activity in comparison with the positive control PreC-gamma ([1]; 6 mg peptide/ml): dramatic change in activity

M-Fic: peptide having the sequence GGWTVFQRRVDGSVDFYRK (SEQ ID NO: 2) (listed as Homo sapiens)
time to saturated attachment [1]: 72 h
Nomarsky optics microscopy of peptide coated beads attached to FF1 (observation) ([1]; FF1): aggregates of cells and beads formed
time to reach 100% / saturated cell binding ([1]; FF1 monolayer, 6 mg peptide/ml): ≤ 24 h
cell binding activity at the lower dose (words) ([1]; FF1 monolayer): retains its activity
cell binding activity at the lower dose (words) ([1]; FF1 monolayer, listed as M-fic): retain most of its activity
activity in comparison with the positive control PreC-gamma ([1]; 6 mg peptide/ml): initially inferior to the positive control
cell binding activity at the lower dose (words) [2]: slight decrease
Nomarsky optics microscopy of peptide coated beads attached to BAEC (observation) ([2]; BAEC): formation of small tubes
overall activity at longer incubation times [2]: highest activity

PreC: positive control peptide KTRWYSMKKTTMKIIPFNR (SEQ ID NO: 10) (listed as Homo sapiens) [reference compound]
cell binding (extent reached) [1, 3]: 100%
